The text below walks through data of ChEMBL document CHEMBL4196233, “Ribosome-Templated Azide-Alkyne Cycloadditions Using Resistant Bacteria as Reaction Vessels: in Cellulo Click Chemistry” (2018).

The assay relates to Staphylococcus aureus. Kind of assay: Antimicrobial activity against Staphylococcus aureus UCN18 measured after 18 hrs. Format: functional. As to conditions: UCN18, 18 h.

In general, MIC refers to the least concentration at which growth counts as inhibited.

Converted amounts (≈) assume the structure as drawn.

For `CC[C@H]1OC(=O)[C@@](C)(F)C(=O)[C@H](C)[C@@H](O[C@@H]2O[C@H](C)C[C@H](N(C)C)[C@H]2O)[C@](C)(OC)C[C@@H](C)C(=O)[C@H](C)[C@H]2N(CCCCn3cc(-c4ccc(N(C)C)cc4)nn3)C(=O)O[C@]12C`, the MIC was determined as 32 µg/mL (≈ 36.7 µM). In the case of `CC[C@H]1OC(=O)[C@@](C)(F)C(=O)[C@H](C)[C@@H](O[C@@H]2O[C@H](C)C[C@H](N(C)C)[C@H]2O)[C@](C)(OC)C[C@@H](C)C(=O)[C@H](C)[C@H]2N(CCCCn3cc(-c4cccc(O)c4)nn3)C(=O)O[C@]12C` it was 8 µg/mL (≈ 9.46 µM); in that of `CC[C@H]1OC(=O)[C@@](C)(F)C(=O)[C@H](C)[C@@H](O[C@@H]2O[C@H](C)C[C@H](N(C)C)[C@H]2O)[C@](C)(OC)C[C@@H](C)C(=O)[C@H](C)[C@H]2N(CCCCn3cc(-c4cccc(C(F)(F)F)c4)nn3)C(=O)O[C@]12C`, 32 µg/mL (≈ 35.6 µM). In the case of `CC[C@H]1OC(=O)[C@@](C)(F)C(=O)[C@H](C)[C@@H](O[C@@H]2O[C@H](C)C[C@H](N(C)C)[C@H]2O)[C@](C)(OC)C[C@@H](C)C(=O)[C@H](C)[C@H]2N(CCCCn3cc(C(O)(CC)CC)nn3)C(=O)O[C@]12C` it was 128 µg/mL (≈ 152 µM); in that of `CC[C@H]1OC(=O)[C@@](C)(F)C(=O)[C@H](C)[C@@H](O[C@@H]2O[C@H](C)C[C@H](N(C)C)[C@H]2O)[C@](C)(OC)C[C@@H](C)C(=O)[C@H](C)[C@H]2N(CCCCn3cc(COc4ccc(OC)cc4)nn3)C(=O)O[C@]12C`, 16 µg/mL (≈ 18 µM). With `CC[C@H]1OC(=O)[C@@](C)(F)C(=O)[C@H](C)[C@@H](O[C@@H]2O[C@H](C)C[C@H](N(C)C)[C@H]2O)[C@](C)(OC)C[C@@H](C)C(=O)[C@H](C)[C@H]2N(CCCCn3cc(-c4ccccc4F)nn3)C(=O)O[C@]12C`, it took 8 µg/mL (≈ 9.43 µM) to inhibit growth (MIC). In the case of `CC[C@H]1OC(=O)[C@@](C)(F)C(=O)[C@H](C)[C@@H](O[C@@H]2O[C@H](C)C[C@H](N(C)C)[C@H]2O)[C@](C)(OC)C[C@@H](C)C(=O)[C@H](C)[C@H]2N(CCCCn3cc(CN4CCNCC4)nn3)C(=O)O[C@]12C` it was 128 µg/mL (≈ 150 µM).

For `CC[C@H]1OC(=O)[C@@](C)(F)C(=O)[C@H](C)[C@@H](O[C@@H]2O[C@H](C)C[C@H](N(C)C)[C@H]2O)[C@](C)(OC)C[C@@H](C)C(=O)[C@H](C)[C@H]2N(CCCCn3cc(-c4ccc(OC)cc4)nn3)C(=O)O[C@]12C`, the MIC came to 32 µg/mL (≈ 37.2 µM). The figure for `CC[C@H]1OC(=O)[C@@](C)(F)C(=O)[C@H](C)[C@@H](O[C@@H]2O[C@H](C)C[C@H](N(C)C)[C@H]2O)[C@](C)(OC)C[C@@H](C)C(=O)[C@H](C)[C@H]2N(CCCCn3cc(-c4cccnc4)nn3)C(=O)O[C@]12C` is 16 µg/mL (≈ 19.3 µM); for `CC[C@H]1OC(=O)[C@@](C)(F)C(=O)[C@H](C)[C@@H](O[C@@H]2O[C@H](C)C[C@H](N(C)C)[C@H]2O)[C@](C)(OC)C[C@@H](C)C(=O)[C@H](C)[C@H]2N(CCCCN=[N+]=[N-])C(=O)O[C@]12C` it is 256 µg/mL (≈ 352 µM). In the case of `CC[C@H]1OC(=O)[C@@](C)(F)C(=O)[C@H](C)[C@@H](O[C@@H]2O[C@H](C)C[C@H](N(C)C)[C@H]2O)[C@](C)(OC)C[C@@H](C)C(=O)[C@H](C)[C@H]2N(CCCCn3cc(COc4ccccc4)nn3)C(=O)O[C@]12C` it was 4 µg/mL (≈ 4.65 µM). In the case of `CC[C@H]1OC(=O)[C@@](C)(F)C(=O)[C@H](C)[C@@H](O[C@@H]2O[C@H](C)C[C@H](N(C)C)[C@H]2O)[C@](C)(OC)C[C@@H](C)C(=O)[C@H](C)[C@H]2N(CCCCn3cc(-c4cccc(N)c4)nn3)C(=O)O[C@]12C` [SOLITHROMYCIN], the minimal inhibitory concentration (MIC) came out at 2 µg/mL (≈ 2.37 µM).
